Patent publication US20250381168A1, “VLA4 INHIBITORS AND USES THEREOF” (Washington University, priority 2022, published 2025)
“Also recorded” adds a separate entry of the source. Read-outs that look alike come from different tables or passages of the source.

Experiments:
VLA-4 (a4b1) = VLA-4 (a4b1) (Homo sapiens (Human), UniProt P05556+P13612); assay: sVCAM flow cytometry cell-based assay (inhibition of soluble VCAM-1 binding to G2 ALL cells);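 note: compounds at 0.1 to 1000 nM preincubated 30 min with G2 ALL cells, then VCAM/Fc added for 30 min, bound VCAM-1 detected by PE secondary antibody, percent binding cells by flow cytometry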
[1] = system: hematopoietic stem/progenitor cells (HSPCs); assay: HSPC mobilization into peripheral blood, colony forming unit (CFU) assay; settings: mice; for No. CFU (x10^3)/mL ± SD, 2 hr: 2 hr post dose (TABLE 11)
Experimental: HSPC mobilization. […] For those that dissolve in straight saline, a 0.2 mL dose, diluted with saline from the stock solution to provide the target dose (in mg/kg), was injected s.c. to each test mouse.
When doing combination studies with the VLA4 inhibitor plus a CXCR4 inhibitor and/or a CXCL2 agonist, the other agents were dosed as follows:
The CXCR4 inhibitor AMD3100 (Mozobil®, Genzyme, Cambridge, MA, USA) suspension was prepared in PBS and administered s.c. at a dose of 5 mg/kg.
Recombinant human CXCL2 (Groβt; R & D systems) was reconstituted in sterile Ca^+2/Mg^+2-free phosphate buffered saline (PBS) and injected subcutaneously (s.c.) at a dose of 2.5 mg/kg.
Colony forming unit (CFU) assay. Peripheral blood (PB) was drawn from the facial vein without anaesthesia into K/EDTA anti-coagulated tubes (Sarstedt AG & Co, NOmbrecht, Germany) at various time points post dosing of the test compounds. Red blood cells were removed from aliquots of blood using hypotonic lysis (Ammonium-Chloride-Potassium, ACK buffer, 5-10 min at RT) and samples were mixed with 2 mL mouse methylcellulose complete media, supplemented with a cocktail of recombinant cytokines (HS0007; R & D Systems, Minneapolis, USA). Cultures were plated in duplicate in 35 mm dishes and placed in a humidified chamber with 5% CO2 at 37° C. After 7 d of culture, colonies containing at least 50 cells were counted using an inverted microscope in a blinded fashion.

[2] = inhibition of sVCAM-1 binding to human G2 ALL cells (TABLE 3), read-out: SVCAM-1, IC50
[3] = as listed in TABLE 11, read-out: sVCAM IC50
[4] = single dose, peripheral blood, 4 hr post dose (TABLE 11)
[5] = single dose, peripheral blood, 6 hr post dose (TABLE 11)
[6] = single dose, peripheral blood, 24 hr post dose (TABLE 11)

Chain of VLA-4 (a4b1) (P13612 34-1032): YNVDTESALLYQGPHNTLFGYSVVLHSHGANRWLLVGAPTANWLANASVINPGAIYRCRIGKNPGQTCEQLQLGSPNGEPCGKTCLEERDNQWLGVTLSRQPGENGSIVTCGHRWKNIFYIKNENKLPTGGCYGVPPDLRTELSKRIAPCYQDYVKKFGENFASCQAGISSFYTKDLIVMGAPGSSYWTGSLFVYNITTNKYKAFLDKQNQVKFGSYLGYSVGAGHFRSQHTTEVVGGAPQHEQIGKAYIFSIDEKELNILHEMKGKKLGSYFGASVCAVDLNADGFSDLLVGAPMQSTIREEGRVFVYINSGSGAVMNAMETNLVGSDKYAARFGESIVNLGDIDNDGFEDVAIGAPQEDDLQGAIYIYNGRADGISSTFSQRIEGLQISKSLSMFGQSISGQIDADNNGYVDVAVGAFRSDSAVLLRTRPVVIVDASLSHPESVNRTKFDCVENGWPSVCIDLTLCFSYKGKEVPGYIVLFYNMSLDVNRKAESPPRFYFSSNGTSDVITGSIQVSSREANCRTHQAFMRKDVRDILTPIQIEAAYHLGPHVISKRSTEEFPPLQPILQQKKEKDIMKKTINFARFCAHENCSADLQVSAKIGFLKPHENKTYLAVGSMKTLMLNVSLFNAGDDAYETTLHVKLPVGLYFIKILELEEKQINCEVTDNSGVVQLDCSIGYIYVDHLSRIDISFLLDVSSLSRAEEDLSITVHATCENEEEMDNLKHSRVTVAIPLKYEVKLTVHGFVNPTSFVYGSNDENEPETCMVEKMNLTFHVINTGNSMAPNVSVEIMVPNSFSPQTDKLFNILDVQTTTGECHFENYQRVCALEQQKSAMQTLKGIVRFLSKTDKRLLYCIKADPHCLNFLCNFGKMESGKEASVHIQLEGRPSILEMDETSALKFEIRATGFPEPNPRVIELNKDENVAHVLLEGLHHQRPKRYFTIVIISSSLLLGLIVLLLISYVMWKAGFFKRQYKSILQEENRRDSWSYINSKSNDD
Chain of VLA-4 (a4b1) (P05556 21-798): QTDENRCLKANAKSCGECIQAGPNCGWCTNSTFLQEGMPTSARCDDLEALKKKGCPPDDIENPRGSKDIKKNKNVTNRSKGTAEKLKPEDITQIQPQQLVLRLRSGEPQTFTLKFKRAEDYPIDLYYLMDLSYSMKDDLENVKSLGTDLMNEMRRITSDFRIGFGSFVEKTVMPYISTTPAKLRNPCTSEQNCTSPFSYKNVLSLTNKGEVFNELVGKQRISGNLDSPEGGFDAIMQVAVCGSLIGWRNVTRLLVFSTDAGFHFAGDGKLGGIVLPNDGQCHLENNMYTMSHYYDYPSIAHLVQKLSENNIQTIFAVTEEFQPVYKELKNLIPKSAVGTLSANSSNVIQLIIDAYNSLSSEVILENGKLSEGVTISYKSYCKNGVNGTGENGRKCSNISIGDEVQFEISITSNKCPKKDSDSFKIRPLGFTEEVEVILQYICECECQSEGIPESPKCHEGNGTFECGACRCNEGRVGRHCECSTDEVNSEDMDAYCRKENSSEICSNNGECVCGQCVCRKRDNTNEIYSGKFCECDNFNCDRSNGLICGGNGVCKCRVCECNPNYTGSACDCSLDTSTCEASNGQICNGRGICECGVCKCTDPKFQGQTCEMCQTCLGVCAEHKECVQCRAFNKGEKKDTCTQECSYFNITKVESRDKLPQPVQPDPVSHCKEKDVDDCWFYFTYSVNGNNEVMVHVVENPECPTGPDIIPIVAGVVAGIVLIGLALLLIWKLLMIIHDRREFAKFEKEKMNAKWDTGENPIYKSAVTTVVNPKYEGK

**Q.** What does the source list for `COCCOCCOCCOCCOCCOCCOCCOCCOCCOCCOCCOCCOCCOCCOCCOCCOCCOCCOCCOCCOCCOCCOCCOCCn1cc(COCc2cc(OC)c(-c3ccc(C[C@H](NC(=O)[C@@H]4CCCN4S(=O)(=O)c4cc(Cl)cc(Cl)c4)C(=O)O)cc3)c(OC)c2)nn1` [Example C9, (S)-3-(4′-(((1-(2,5,8,11,14,17,20,23,26,29,32,35,38,41,44,47,50,53,56,59,62,65,68,71-tetracosaoxatriheptacontan-73-yl)-1H-1,2,3-triazol-4-yl)methoxy)methyl)-2′,6′-dimethoxy-[1,1′-biphenyl]-4-yl)-2-((S)-1-((3,5-dichlorophenyl)sulfonyl)pyrrolidine-2-carboxamido)propanoic Acid]?
**A.** IC50 (VLA-4 (a4b1); as listed in TABLE 8, read-out: sVCAM IC50): 0.579 nM; IC50 (VLA-4 (a4b1); [2]): 0.579 nM; HSPC mobilization, result in words ([1]; single dose): returning to baseline by 4 hours; also recorded: inferior mobilization at 4 hours compared to Example 3; No. CFU (×10^3)/mL ± SD, 0.25 hr ([1]; single dose, peripheral blood, 0.25 hr post dose (TABLE 8)): 3.72 ± 1.18 (×10^3)/mL; No. CFU (×10^3)/mL ± SD, 2 hr ([1]; single dose, peripheral blood, 2 hr post dose (TABLE 8)): 3.09 ± 1.06 (×10^3)/mL; No. CFU (×10^3)/mL ± SD, 4 hr ([1]; single dose, peripheral blood, 4 hr post dose (TABLE 8)): 0.57 ± 0.28 (×10^3)/mL

**Q.** `c1cc(CN2CCCNCCNCCCNCC2)ccc1CN1CCCNCCNCCCNCC1` [AMD3100, plerixafor] was tested. Which “No. CFU (×10^3)/mL ± SD, 2 hr” value ([1]; single dose alone or in combination with AMD3100 (5 mg/kg s.c.), peripheral blood, 2 hr (TABLE 14)) did it give?
**A.** 3.42 ± 1.42 (×10^3)/mL

**Q.** And the “No. CFU (×10^3)/mL ± SD, 3 hr” value ([1]; single dose alone or in combination with AMD3100 (5 mg/kg s.c.), peripheral blood, 3 hr (TABLE 14))?
**A.** 5.08 ± 2.32 (×10^3)/mL

**Q.** What about the “No. CFU (×10^3)/mL ± SD, 5 hr” value ([1]; single dose alone or in combination with AMD3100 (5 mg/kg s.c.), peripheral blood, 5 hr (TABLE 14)) of the same molecule?
**A.** 2.38 ± 0.73 (×10^3)/mL

**Q.** How did the IC50 (VLA-4 (a4b1); as listed in TABLE 9, read-out: sVCAM IC50) turn out when `COCCOCCOCCOCCOCCOCCOCCOCCOCc1cc(OC)c(-c2ccc(C[C@H](NC(=O)[C@@H]3CCCN3S(=O)(=O)c3cc(Cl)cc(Cl)c3)C(=O)O)cc2)c(OC)c1` [Example C12, (2S)-2-[[(2S)-1-(3,5-dichlorophenyl)sulfonylpyrrolidine-2-carbonyl]amino]-3-[4-[2,6-dimethoxy-4-[2-[2-[2-[2-[2-[2-[2-(2-methoxyethoxy)ethoxy]ethoxy]ethoxy]ethoxy]ethoxy]ethoxy]ethoxymethyl]phenyl]phenyl]propanoic Acid] was run?
**A.** 0.573 nM

**Q.** And the IC50 (VLA-4 (a4b1); [3])?
**A.** 0.573 nM

**Q.** What about the IC50 (VLA-4 (a4b1); as listed in TABLE 17, read-out: sVCAM IC50) of the same molecule?
**A.** 0.573 nM

**Q.** What about the IC50 (VLA-4 (a4b1); [2]) of the same molecule?
**A.** 0.573 nM

**Q.** And the “time to which HSPC mobilization is extended after a single dose” value [1]?
**A.** ≤ 2 h

**Q.** And the “No. CFU (×10^3)/mL ± SD, 2 hr” value ([1]; alone or in combination with Plerixafor and tGroβ, peripheral blood, 2 hr (TABLE 17))?
**A.** 4.02 ± 1.99 (×10^3)/mL

**Q.** And the “No. CFU (×10^3)/mL ± SD, 4 hr” value ([1]; alone or in combination with Plerixafor and tGroβ, peripheral blood, 4 hr (TABLE 17))?
**A.** 0.90 ± 0.61 (×10^3)/mL

**Q.** And the “No. CFU (×10^3)/mL ± SD, 6 hr” value ([1]; alone or in combination with Plerixafor and tGroβ, peripheral blood, 6 hr (TABLE 17))?
**A.** 0.25 ± 0.08 (×10^3)/mL

**Q.** And the “HSPC mobilization, result in words” value ([1]; single dose)?
**A.** returning to baseline by 4 hours and clearly at baseline by 6 hours; also recorded: do not provide the same extended mobilization as the 24 PEG unit analogues

**Q.** What about the “No. CFU (×10^3)/mL ± SD, 2 hr” value ([1]; single dose, peripheral blood, 2 hr post dose (TABLE 9)) of the same molecule?
**A.** 2.42 ± 1.06 (×10^3)/mL

**Q.** And the “No. CFU (x10^3)/mL ± SD, 2 hr” value ([1]; single dose, peripheral blood)?
**A.** 0.78 ± 0.17 (x10^3)/mL

**Q.** And the “No. CFU (×10^3)/mL ± SD, 4 hr” value ([1]; single dose, peripheral blood, 4 hr post dose (TABLE 9))?
**A.** 1.19 ± 0.53 (×10^3)/mL

**Q.** What about the “No. CFU (x10^3)/mL ± SD, 4 hr” value [1, 4] of the same molecule?
**A.** 0.58 ± 0.19 (x10^3)/mL

**Q.** And the “No. CFU (×10^3)/mL ± SD, 6 hr” value ([1]; single dose, peripheral blood, 6 hr post dose (TABLE 9))?
**A.** 0.24 ± 0.15 (×10^3)/mL

**Q.** And the “No. CFU (x10^3)/mL ± SD, 6 hr” value [1, 5]?
**A.** 0.22 ± 0.10 (x10^3)/mL

**Q.** What about the “No. CFU (x10^3)/mL ± SD, 24 hr” value [1, 6] of the same molecule?
**A.** 0.14 ± 0.07 (x10^3)/mL

**Q.** Which results are given for `COCCOCCOCCOCCOCCOCCOCCOCCSCc1cc(OC)c(-c2ccc(C[C@H](NC(=O)[C@@H]3CCCN3S(=O)(=O)c3cc(Cl)cc(Cl)c3)C(=O)O)cc2)c(OC)c1` [Example C16]?
**A.** IC50 (VLA-4 (a4b1); [3]): 0.155 nM; IC50 (VLA-4 (a4b1); [2]): 0.155 nM; No. CFU (x10^3)/mL ± SD, 2 hr ([1]; single dose, peripheral blood): 2.34 ± 0.55 (x10^3)/mL; No. CFU (x10^3)/mL ± SD, 4 hr [1, 4]: 1.14 ± 0.86 (x10^3)/mL; No. CFU (x10^3)/mL ± SD, 6 hr [1, 5]: 0.38 ± 0.24 (x10^3)/mL; No. CFU (x10^3)/mL ± SD, 24 hr [1, 6]: 0.14 ± 0.06 (x10^3)/mL

**Q.** Which IC50 (VLA-4 (a4b1); as listed in TABLE 6, read-out: sVCAM IC50) does the source give for `COc1cc(CO)cc(OC)c1-c1ccc(C[C@H](NC(=O)[C@@H]2CCCN2S(=O)(=O)c2cc(Cl)cc(Cl)c2)C(=O)O)cc1` [Example C8] here?
**A.** 0.199 nM

**Q.** What about the IC50 (VLA-4 (a4b1); as listed in TABLE 7, read-out: sVCAM IC50) of the same molecule?
**A.** 0.199 nM

**Q.** And the IC50 (VLA-4 (a4b1); [2])?
**A.** 0.199 nM

**Q.** And the “HSPC mobilization, result in words” value ([1]; single dose)?
**A.** have returned to baseline

**Q.** And the “No. CFU (×10^3)/mL ± SD, 0.5 hr” value ([1]; single dose, peripheral blood, 0.5 hr post dose (TABLE 7))?
**A.** 0.85 ± 0.30 (×10^3)/mL

**Q.** And the “No. CFU (×10^3)/mL ± SD, 2 hr” value ([1]; single dose, peripheral blood, 2 hr post dose (TABLE 7))?
**A.** 0.87 ± 0.30 (×10^3)/mL

**Q.** What about the “No. CFU (×10^3)/mL ± SD, 4 hr” value ([1]; single dose, peripheral blood, 4 hr post dose (TABLE 7)) of the same molecule?
**A.** 0.27 ± 0.36 (×10^3)/mL

**Q.** And the “No. CFU (×10^3)/mL ± SD, 0.25 hr” value ([1]; single s.c. injection, peripheral blood, 0.25 hr post dose (TABLE 6))?
**A.** 2.74 ± 0.69 (×10^3)/mL

**Q.** And the “No. CFU (×10^3)/mL ± SD, 2 hr” value ([1]; single s.c. injection, peripheral blood, 2 hr post dose (TABLE 6))?
**A.** 2.10 ± 0.85 (×10^3)/mL

**Q.** What about the “No. CFU (×10^3)/mL ± SD, 4 hr” value ([1]; single s.c. injection, peripheral blood, 4 hr post dose (TABLE 6)) of the same molecule?
**A.** 0.42 ± 0.15 (×10^3)/mL

**Q.** How did the “No. CFU (x10^3)/mL ± SD, 4 hr” value ([1]; single dose alone or in combination with Plerixafor (5 mg/kg s.c.), peripheral blood, 4 hr (TABLE 15)) turn out when `c1cc(CN2CCCNCCNCCCNCC2)ccc1CN1CCCNCCNCCCNCC1` [Plerixafor, plerixafor] was run?
**A.** 1.25 ± 0.30 (x10^3)/mL

**Q.** What about the “No. CFU (x10^3)/mL ± SD, 6 hr” value ([1]; single dose alone or in combination with Plerixafor (5 mg/kg s.c.), peripheral blood, 6 hr (TABLE 15)) of the same molecule?
**A.** 0.28 ± 0.12 (x10^3)/mL

**Q.** And the “No. CFU (x10^3)/mL ± SD, 24 hr” value ([1]; single dose alone or in combination with Plerixafor (5 mg/kg s.c.), peripheral blood, 24 hr (TABLE 15))?
**A.** 0.22 ± 0.08 (x10^3)/mL
